From paper PMC10673369, “Preliminary SAR of Novel Pleuromutilin–Polyamine Conjugates” (Microorganisms, 2023)

What was measured:
S. aureus ATCC 25923 = assay: MIC, broth dilution, S. aureus; assay type: cell-based; settings: Staphylococcus aureus, ATCC25923, mean (n = 3)
Protocol: (§1) The susceptibility of bacterial strains S. aureus (ATCC 25923), E. coli (ATCC 25922), and P. aeruginosa (ATCC 27853 or PAO1) to antibiotics and compounds was determined using reported protocols. Additional antimicrobial evaluation against MRSA (ATCC 43300), Klebsiella pneumoniae (ATCC 700603), A. baumannii (ATCC 19606), Candida albicans (ATCC 90028), and Cryptococcus neoformans (ATCC 208821) was undertaken at the Community for Open Antimicrobial Drug Discovery at The University of Queensland (Australia) according to their standard protocols as reported previously. […]
(§2) 2.3. Antimicrobial Assays
(§3) The susceptibility of bacterial strains S. aureus (ATCC 25923), E. coli (ATCC 25922), and P. aeruginosa (ATCC 27853 or PAO1) to antibiotics and compounds was determined in microplates using the standard broth dilution method in accordance with the recommendations of the Comité de l’AntibioGramme de la Société Française de Microbiologie (CA-SFM). Briefly, the minimal inhibitory concentrations (MICs) were determined with an inoculum of 10^5 CFU in 200 µL of Mueller–Hinton broth (MHB) containing two-fold serial dilutions of each drug. The MIC was defined as the lowest […]
(§4) determine all MICs, the measurements were independently repeated in triplicate. Additional antimicrobial evaluation against MRSA (ATCC 43300), Klebsiella pneumoniae (ATCC 700603), A. baumannii (ATCC 19606), Candida albicans (ATCC 90028), and Cryptococcus neoformans (ATCC 208821) was undertaken at the Community for Open Antimicrobial Drug Discovery at The University of Queensland (Australia) according to their standard protocols as reported previously. […]
(§5) For C. neoformans, resazurin was added at 0.006% final concentration to each well and incubated for a further 3 h before MICs were determined by measuring […]
(§6) Colistin and vancomycin were used as positive bacterial inhibitor standards for Gram-negative and Gram-positive bacteria, respectively. Fluconazole was used as a positive fungal inhibitor standard for C. albicans and C. neoformans. The antibiotics were provided in […], with 3 above and 3 below its MIC value, and plated into the first 8 wells of column 23 of the 384-well NBS plates. The quality control (QC) of the assays was determined by the antimicrobial controls and the Z'-factor (using positive and negative controls). Each plate was deemed to fulfil the quality criteria (pass QC) if the Z'- […]
(§7) inhibition at their highest concentration, and no growth inhibition at their lowest concentration.
(§8) 2.4. Determination of the MICs of Antibiotics in the Presence of Synergizing Compounds

MRSA ATCC 43300 = assay: MIC, CO-ADD broth microdilution, MRSA; assay type: cell-based, methicillin-resistant S. aureus; settings: Staphylococcus aureus; MRSA ATCC 43300; mean (n = 2); read-out: MIC MRSA
Protocol: as §1, §2
(§9) The susceptibility of bacterial strains S. aureus (ATCC 25923), E. coli (ATCC 25922), and P. […]
(§10) baumannii (ATCC 19606), Candida albicans (ATCC 90028), and Cryptococcus neoformans (ATCC 208821) was undertaken at the Community for Open Antimicrobial Drug Discovery at The University of Queensland (Australia) according to their standard protocols as reported previously. For antimicrobial assays, the tested strains were cultured in either Luria broth (LB) (In Vitro Technologies, USB75852), nutrient broth (NB) (Becton Dickson, 234000), or MHB at 37 °C overnight. A sample of culture was then diluted 40-fold in fresh MHB and incubated at 37 °C for 1.5−2 h. The compounds were serially diluted 2-fold across the wells of 96-well plates (Corning 3641, non-binding surface), with compound concentrations ranging from 0.015 to 64 µg/ mL, and plated in duplicate. The resultant mid-log phase cultures were diluted to the final concentration of 1 × 10^6 CFU/mL; then, 50 µL was added to each well of the compound-containing plates, giving a final compound concentration range of 0.008 to 32 µg/mL and a cell density of 5 × 10^5 CFU/mL. All plates were then covered and incubated at 37 °C for 18 h. Resazurin was added at 0.001% final concentration to each well and incubated for 2 h before MICs […]
as §5, §6, §7, §8

E. coli ATCC 25922 = assay: MIC, broth dilution, E. coli; assay type: cell-based, Escherichia coli; settings: Escherichia coli, ATCC25922, mean (n = 3)
Protocol: as §1, §2, §3, §4

P. aeruginosa PAO1 = assay: MIC, broth dilution, P. aeruginosa PAO1; assay type: cell-based; settings: Pseudomonas aeruginosa, mean (n = 3)
Protocol: as §1, §2, §3, §4, §5, §6, §7, §8

[1] = test system: K. pneumoniae ATCC 700603; assay: MIC, CO-ADD broth microdilution, K. pneumoniae; assay type: cell-based, Klebsiella pneumoniae; settings: Klebsiella pneumoniae, ATCC700603, mean (n = 2)
Protocol: as §1, §2, §9, §10, §5, §6, §7, §8

C. albicans ATCC 90028 = assay: MIC, CO-ADD antifungal assay, C. albicans; assay type: cell-based, Candida albicans; settings: Candida albicans, ATCC90028, mean (n = 2)
Protocol: as §1, §2, §9
baumannii (ATCC 19606), Candida albicans (ATCC 90028), and Cryptococcus neoformans (ATCC 208821) was undertaken at the Community for Open Antimicrobial Drug Discovery at The University of Queensland (Australia) according to their standard protocols as reported previously. […]
For the antifungal assay, fungi strains were cultured for 3 days on YPD agar at 30 °C. A yeast suspension of 1 × 106 to 5 × 10^6 CFU/mL was prepared from five colonies. These stock suspensions were diluted with yeast nitrogen base (YNB) (Becton Dickinson, 233520) broth to a final concentration of 2.5 × 10^3 CFU/mL. The compounds were serially diluted 2-fold across the wells of 96-well plates (Corning 3641, non-binding surface), with compound concentrations ranging from 0.015 to 64 µg/mL and final volumes of 50 µL, plated in duplicate. Then, 50 µL of the fungi suspension that was previously prepared in YNB broth to the final concentration of 2.5 × 10^3 CFU/mL was added to each well of the compound-containing plates, giving a final compound concentration range of 0.008 to 32 µg/mL. Plates were covered and incubated at 35 °C for 36 h without shaking. C. albicans MICs were determined by measuring the absorbance at OD530. For C. neoformans, resazurin was added at 0.006% final concentration to each well and incubated for a further 3 h before MICs were determined by measuring […]
as §6, §7, §8

P. aeruginosa ATCC 27853 = assay: Antibiotic enhancement of doxycycline; assay type: cell-based
Protocol: Antibiotic restoring enhancer concentrations were determined using reported protocols (see Supplementary File).
Briefly, restoring enhancer concentrations were determined with an inoculum of 5x10^5 CFU in 200
µL of MHB containing two-fold serial dilutions of each derivative in the presence of doxycycline at 4.5
The lowest concentration of the polyamine
These measurements were independently repeated in triplicate. […]

MIC (S. aureus ATCC 25923): 2.1 µM
MIC (MRSA ATCC 43300): ≤ 0.17 µM
MIC (E. coli ATCC 25922): 4.19 µM
MIC (P. aeruginosa PAO1): 33.5 µM
MIC [1]: 21.5 µM
MIC (C. albicans ATCC 90028): 21.5 µM
Dox/P.a.: fold change, ratio between intrinsic MIC of test compound and combination MIC (P. aeruginosa ATCC 27853; doxycycline at 4.5 µM): 4
Structure (SMILES): C=C[C@]1(C)C[C@@H](OC(=O)CNCCCNCCCCCCCCCCCCNCCCNCC(=O)O[C@@H]2C[C@@](C)(C=C)[C@@H](O)[C@H](C)[C@]34CCC(=O)[C@H]3[C@@]2(C)[C@H](C)CC4)[C@]2(C)[C@H](C)CC[C@]3(CCC(=O)[C@H]32)[C@@H](C)[C@@H]1O.O=C(O)C(F)(F)F.O=C(O)C(F)(F)F.O=C(O)C(F)(F)F.O=C(O)C(F)(F)F [Compound 9f, N^1,N^1′-(Dodecane-1,12-diyl)bis(N^3-(2-(((3aR,4R,5R,7S,8S,9R,9aS,12R)-8-hydroxy-4,7,9,12-tetramethyl-3-oxo-7-vinyldecahydro-4,9a-propanocyclopenta [8]annulen-5-yl)oxy)-2-oxoethyl)propane-1,3-diaminium) 2,2,2-trifluoroacetate]
Dox/P.a.: concentration required to restore doxycycline activity (P. aeruginosa ATCC 27853; doxycycline at 4.5 µM (2 µg/mL)): 8.38 µM
